Laboratory results as given in patent US20220274947A1, “NOVEL HETEROARYL-TRIAZOLE COMPOUNDS AS PESTICIDES” (Bayer Aktiengesellschaft, priority 2019, published 2022).

Columns and labels:
Format in all cases: in vivo
Spodoptera frugiperda = Spodoptera frugiperda spray test; details: in Zea mays, 168 h, read-out: activity (mortality)
Procedure, shortened: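 Percent kill of fall armyworm caterpillars was assessed 7 days after infesting dried, treated maize leaf sections. Treatment was a spray of compound in acetone/dimethylformamide, diluted with water containing emulsifier at 1000 ppm.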

Rhipicephalus microplus [1] = assay: Rhipicephalus (Boophilus) microplus injection test (BOOPMI Inj); details: 168 h, injection into adult engorged female ticks, egg deposition after 7 days, read-out: activity (efficacy: 100% means all eggs are infertile); for pest or weed control at 0.004 mg: application rate 4 μg/tick; for pest or weed control at 0.02 mg: application rate 20 μg/tick
Procedure, shortened: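 Compound in DMSO, 1 μL, injected abdominally into five adult engorged females, which were then held in a climate chamber. Read-out is egg fertility, scored from deposition at 7 days, with unclear eggs followed to hatching (~42 days); 0% means all eggs fertile, 100% all infertile.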

Diabrotica balteata = Diabrotica balteata spray test; details: 168 h, wheat seeds, larvae, after 7 days, read-out: activity (efficacy: 100% means all seedlings have grown up like in the untreated, uninfected control); for pest or weed control at 32 µg/disc, 100 g/ha: application rate 100 g/ha (=32 μg/well); for pest or weed control at 160 µg/disc, 500 g/ha: application rate 500 g/ha (=160 μg/well)
Procedure, shortened: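 Efficacy (%) was scored 7 days after spraying, with 100% meaning growth like the untreated, uninfected control and 0% meaning no seedling grew. Spray solutions of compound in acetone/DMF with emulsifier-containing water went onto 1-day-germinated wheat seeds, and each unit was then infested with 10-20 banded cucumber beetle larvae.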

Rhipicephalus microplus [2] = assay: Rhipicephalus (Boophilus) microplus in-vitro contact test, larval cattle tick, strain Parkhurst (BOOPMI Cont); details: application rate 5 μg/cm^2 (=500 g/ha), tick larvae, after 48 hours, read-out: activity (efficacy: 100% means all larvae are dead or moribund)
Procedure, shortened: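 After 48 h at 27° C. and 85% humidity, percent dead or moribund larvae was scored from negative geotactic behaviour. Larvae (20-50, Parkhurst strain, synthetic pyrethroid-resistant) were exposed in tubes coated with compound from acetone, 900 ppm corresponding to 5 μg/cm^2.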

Ctenocephalides felis [3] = assay: Ctenocephalides felis oral test (CTECFE Oral); details: 48 h, read-out: activity (mortality)
Procedure, shortened: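 Percent mortality was recorded 2 days after roughly 20 adult Ctenocephalides felis fed on treated cattle blood. The blood was warmed to 37 °C beneath a parafilm membrane, with the fleas kept at room temperature. Compound was dissolved in DMSO and diluted into the blood to test concentration.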

Ctenocephalides felis [4] = assay: Ctenocephalides felis in-vitro contact test, adult cat flea (CTECFE Cont); details: application rate 5 μg/cm^2 (=500 g/ha), adult cat fleas, after 48 hours, read-out: activity (efficacy: 100% means all fleas are dead or moribund)
Procedure, shortened: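 Efficacy, as percent of fleas dead or moribund, was scored 48 h after adults (5-10 per tube) were placed in glass tubes whose walls carried dried compound at 5 μg/cm^2 (900 ppm solution). Moribund meant failing to climb away from a 45-50° C. hot plate within 5 min.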

Myzus persicae = Myzus persicae spray test; details: in Brassica rapa, foliar, 120 h; for mortality at 500 g/ha: read-out: activity (mortality), application rate 500 g/ha, spray, Chinese cabbage leaf disks, after 5 days
Procedure, shortened: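 Aphid mortality in % was assessed 5 days after spraying; leaf disks of Brassica pekinensis carrying mixed-instar green peach aphids were treated. Spray preparation: active compound in acetone plus dimethylformamide, diluted with emulsifier-containing water (1000 ppm).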

SMILES | mortality at 100 g/ha (Spodoptera frugiperda) [%] | mortality at 500 g/ha (Spodoptera frugiperda) [%] | pest or weed control at 0.004 mg (Rhipicephalus microplus [1]) [%] | pest or weed control at 0.02 mg (Rhipicephalus microplus [1]) [%] | pest or weed control at 32 µg/disc, 100 g/ha (Diabrotica balteata) [%] | pest or weed control at 160 µg/disc, 500 g/ha (Diabrotica balteata) [%] | pest or weed control at 5 µg/cm2 (Rhipicephalus microplus [2]) [%] | mortality at 100 ppm (Ctenocephalides felis [3]) [%] | pest or weed control at 5 µg/cm2 (Ctenocephalides felis [4]) [%] | mortality at 500 g/ha (Myzus persicae) [%] | mortality at 100 g/ha (Myzus persicae; read-out: activity (mortality), application rate 100 g/ha, spray, Chinese cabbage leaf disks, after 5 days) [%]
CCc1nc([C@H](C)NC(=O)c2cc(C(F)(F)F)cc(C(F)(F)F)c2)n(-c2ccc(C#N)cn2)n1 [I-1] | 100 | 100 | 100 | 100 | 100 | 100 | 100 | 90 | 90 |  | 
CCc1nc([C@H](C)NC(=O)c2cc(Cl)cc(Cl)c2)n(-c2ccc(C#N)cn2)n1 [I-2] | 100 | 100 | 100 | 100 | 100 | 100 | 100 | 90 | 100 |  | 
CC(C)c1nc([C@H](C)NC(=O)c2cncc(C(F)(F)F)c2)n(-c2ccc(C#N)cn2)n1 [I-30] | 100 |  | 100 | 100 | 100 |  | 100 | 100 | 80 |  | 
C[C@H](NC(=O)c1cccc(Cl)n1)c1ncnn1-c1ccc(C#N)cn1 [II-9] | 83 | 100 |  | 100 | 100 | 100 | 80 | 90 |  |  | 
C[C@H](NC(=O)c1cc(Cl)cc(SC(F)F)c1)c1ncnn1-c1ccc(C#N)cn1 [II-11] | 100 | 100 | 100 | 100 | 100 | 100 | 100 | 100 | 100 |  | 
C[C@H](NC(=O)c1cc(Br)cc(Br)c1)c1ncnn1-c1ccc(C#N)cn1 [II-13] | 100 | 100 | 100 | 100 | 100 |  | 100 | 100 | 100 |  | 
C[C@H](NC(=O)c1cc(Br)cc(OC(F)(F)F)c1)c1ncnn1-c1ccc(C#N)cn1 [II-14] | 100 | 100 | 100 | 100 | 100 | 100 | 100 | 100 | 100 |  | 
Cc1nc([C@H](C)NC(=O)c2cc(Cl)cc(Cl)c2)n(-c2cc(C#N)ccn2)n1 [II-17] |  | 100 | 100 | 100 | 100 | 100 | 90 | 100 | 100 |  | 
Cc1nc([C@H](C)NC(=O)c2cc(Cl)cc(C(F)(F)F)c2)n(-c2cc(C#N)ccn2)n1 [II-18] | 100 | 100 | 100 | 100 | 100 | 100 | 100 | 90 | 100 |  | 
Cc1nc([C@H](C)NC(=O)c2cc(C(F)(F)F)cc(C(F)(F)F)c2)n(-c2cc(C#N)ccn2)n1 [II-19] | 100 | 100 | 100 | 100 | 100 | 100 | 100 | 100 | 100 |  | 
CC(=O)Nc1ccnc(-n2ncnc2[C@H](C)NC(=O)c2cc(Cl)cc(OC(F)(F)F)c2)c1 [II-22] |  | 83 | 100 | 100 |  | 100 | 80 | 100 | 100 |  | 
CCN(C)C(=O)c1ccc(-n2ncnc2[C@H](C)NC(=O)c2cc(Cl)cc(C(F)(F)F)c2)nc1 [II-27] | 83 | 83 | 100 | 100 |  | 100 | 100 |  | 100 | 90 | 
C[C@H](NC(=O)c1cc(Cl)cc(C(F)(F)F)c1)c1ncnn1-c1cc(N)ccn1 [II-28] |  | 100 | 100 | 100 | 100 | 100 | 90 | 100 | 100 |  | 
C[C@H](NC(=O)c1cc(Cl)cc(OC(F)(F)F)c1)c1ncnn1-c1ncc(OC(F)F)cn1 [II-30] | 100 | 100 | 100 | 100 | 100 | 100 | 100 | 100 | 100 |  | 
CC(=O)Nc1ccnc(-n2ncnc2[C@H](C)NC(=O)c2cc(Cl)cc(C(F)(F)F)c2)c1 [II-36] | 100 | 100 | 100 | 100 |  |  | 100 |  | 80 | 90 | 
C[C@H](NC(=O)c1cc(C(F)(F)F)cc(C(F)(F)F)c1)c1ncnn1-c1ncc(Br)s1 [II-41] | 100 |  | 100 | 100 | 100 | 100 | 100 |  |  |  | 
C[C@H](NC(=O)c1cc(Cl)cc(C(F)(F)F)c1)c1ncnn1-c1cc(-n2cncn2)ccn1 [II-43] | 100 | 100 | 100 | 100 | 100 | 100 | 100 |  | 100 |  | 
Cc1nc([C@H](C)NC(=O)c2cc(C(F)(F)F)cc(C(F)(F)F)c2)n(-c2ccc(C(=O)N(C)CC#N)cn2)n1 [II-99] |  |  | 100 |  | 100 |  | 100 |  | 100 |  | 90
C[C@H](NC(=O)c1cc(OC(F)(F)F)cc(C(F)F)c1)c1ncnn1-c1ccc(C#N)cn1 [II-111] | 100 |  | 100 |  | 100 |  | 100 |  | 100 |  | 
